Read-outs that look alike come from different tables or passages of the source.
How the values were obtained:
Kir2.1 [1] = conditions: Xenopus oocytes, at −120 mV; ref Schram et al. 23; cited from earlier work
human Kir2.1 channels = molecular target: T1, human Kir2.1 channels (Homo sapiens, UniProt P63252); assay: cell-based; assay type: cell-based
T1 sequence (P63252 1-427): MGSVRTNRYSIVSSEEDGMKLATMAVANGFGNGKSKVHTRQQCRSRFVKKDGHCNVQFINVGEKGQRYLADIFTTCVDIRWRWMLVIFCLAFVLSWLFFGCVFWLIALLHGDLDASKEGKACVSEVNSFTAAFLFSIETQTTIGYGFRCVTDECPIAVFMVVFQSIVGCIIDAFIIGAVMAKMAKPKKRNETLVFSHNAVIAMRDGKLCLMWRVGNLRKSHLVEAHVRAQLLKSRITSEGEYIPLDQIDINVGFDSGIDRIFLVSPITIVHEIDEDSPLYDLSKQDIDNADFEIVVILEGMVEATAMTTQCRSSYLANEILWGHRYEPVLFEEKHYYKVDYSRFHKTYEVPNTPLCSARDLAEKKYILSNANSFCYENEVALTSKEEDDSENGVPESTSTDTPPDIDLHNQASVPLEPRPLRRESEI

Kir2.1 [2] = conditions: HEK cells, at −90 mV; ref Shen et al. 43; cited from earlier work
IK1 currents = conditions: 3 μM chloroquine, at −100 mV; cited from earlier work
Kir2.1 [3] = conditions: at −100 mV, manual patch-clamp; cited from earlier work

| SMILES | IC50 (Kir2.1 [1]) [µM] | Hill coefficient (nH) (human Kir2.1 channels) | IC50 (Kir2.1 [2]) [µM] | Hill slope nH (95% CI) (human Kir2.1 channels) | IC50 (human Kir2.1 channels) [µM] | decrease of IK1 currents (IK1 currents) [%] | IC50 (Kir2.1 [3]) [nM] |
| --- | --- | --- | --- | --- | --- | --- | --- |
| [Ba+2].[Cl-].[Cl-] [Ba^2+] | 16 | 1.03 | 7.9 |  |  |  |  |
| CCN(CC)CCCC(C)Nc1ccnc2cc(Cl)ccc12 (stereo not drawn) [Chloroquine, 4-N-(7-chloroquinolin-4-yl)-1-N,1-N-diethylpentane-1,4-diamine] |  |  |  | 0.80 (0.76–0.83) | 1.9 | 67 |  |
| CN(C)CCCN1c2ccccc2Sc2ccc(Cl)cc21 [Chlorpromazine, 3-(2-chlorophenothiazin-10-yl)-N,N-dimethylpropan-1-amine] |  |  |  | 1.7 (1.4–2.1) | 3.8 |  |  |
| COc1ccc(CNCc2cccc3ccccc23)cc1 [ML133, N-(4-methoxybenzyl)-1-(naphthalene-1-yl) methanamine] |  |  |  | 2.6 (2.2–3.1) | 1.2 |  | 1800 |
| COc1ccc(CCCOC(Cn2ccnc2)c2ccc(OC)cc2)cc1 (stereo not drawn) [SKF-96365, 1-[2-(4-methoxyphenyl)-2-[3-(4-methoxyphenyl)propoxy]ethyl]imidazole] |  |  |  | 1.3 (1.1–1.5) | 4.7 |  |  |
| COc1ccc(C2CCN(CC[C@H]3CCOc4ccccc43)CC2)cc1OC [Terikalant, 1-[2-[(4S)-3,4-dihydro-2H-chromen-4-yl]ethyl]-4-(3,4-dimethoxyphenyl)piperidine] |  |  |  | 0.98 (0.88–1.1) | 8.4 |  |  |

— publication PMC6479253 (Assay and Drug Development Technologies, 2019)
